The numbers were not newly measured in patent publication US20160101114A1, “ARTICLES AND METHODS FOR PREVENTING AND TREATING DERMATOLOGIC ADVERSE EVENTS” (SLOAN-KETTERING INSTITUTE FOR CANCER RESEARCH, priority 2013, published 2016), which cites them from elsewhere.

The conditions of the data set: cancer therapies with multikinase inhibitors.
Regarding `CNC(=O)c1ccccc1Sc1ccc2c(/C=C/c3ccccn3)n[nH]c2c1` [axitinib], the “all grade incidence of hand foot syndrome” value (“all grade incidence” for short) is 29%.

Turning to `COc1cc2nccc(Oc3ccc(NC(=O)C4(C(=O)Nc5ccc(F)cc5)CC4)cc3)c2cc1OC` [cabozantinib], the “all grade incidence” value is 50%.

As for `Cc1ccc(Nc2nccc(N(C)c3ccc4c(C)n(C)nc4c3)n2)cc1S(N)(=O)=O` [pazopanib], the “all grade incidence” value is 5%.

Regarding `CNC(=O)c1cc(Oc2ccc(NC(=O)Nc3ccc(Cl)c(C(F)(F)F)c3)c(F)c2)ccn1` [regorafenib], the “all grade incidence” value is 46%.

`CNC(=O)c1cc(Oc2ccc(NC(=O)Nc3ccc(Cl)c(C(F)(F)F)c3)cc2)ccn1` [sorafenib]: the “all grade incidence” value is given as 60%.

For the compound `CCN(CC)CCNC(=O)c1c(C)[nH]c(/C=C2\C(=O)Nc3ccc(F)cc32)c1C` [sunitinib], the “all grade incidence” value is given as 30%.

For the compound `COc1cc2c(Nc3ccc(Br)cc3F)ncnc2cc1OCC1CCN(C)CC1` [vandetanib], the “all grade incidence” value is 5%.

Turning to ziv-aflibercept, the “all grade incidence” value is reported as 2%.
